{"source": "patent US20110144056A1", "about": "“PYRAZOLE DERIVATIVES USEFUL AS INHIBITORS OF FAAH” (priority 2008, published 2011)"}
{"target": "T1, FAAH (Homo sapiens, UniProt O00519)", "T1 construct": "The full length FAAH was subcloned into the mammalian expression vector, pcDEF.neo; expressed in transfected cells; cDNA from Origene", "T1 sequence (O00519 1-579)": "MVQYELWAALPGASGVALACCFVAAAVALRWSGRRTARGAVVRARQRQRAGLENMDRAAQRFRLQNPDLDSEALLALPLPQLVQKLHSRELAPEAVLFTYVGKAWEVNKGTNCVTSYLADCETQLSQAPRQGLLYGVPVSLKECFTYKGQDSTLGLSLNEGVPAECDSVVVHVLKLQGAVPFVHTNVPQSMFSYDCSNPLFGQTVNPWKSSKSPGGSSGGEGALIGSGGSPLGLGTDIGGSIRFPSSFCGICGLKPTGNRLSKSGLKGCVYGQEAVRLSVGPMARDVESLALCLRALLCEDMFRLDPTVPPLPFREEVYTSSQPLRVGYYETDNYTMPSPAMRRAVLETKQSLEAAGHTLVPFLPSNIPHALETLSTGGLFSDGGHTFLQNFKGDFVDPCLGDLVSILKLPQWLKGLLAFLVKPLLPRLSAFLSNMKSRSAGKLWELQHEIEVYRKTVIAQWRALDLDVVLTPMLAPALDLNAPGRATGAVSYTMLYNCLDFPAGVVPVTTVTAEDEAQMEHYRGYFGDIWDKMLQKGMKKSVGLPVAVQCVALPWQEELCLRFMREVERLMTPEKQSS", "test": "FAAH enzyme assay, lysate of CHO cells expressing human FAAH", "format": "biochemical", "conditions": "cell lysate, read-out: FAAH Human Cell Lysate IC50", "text": "To assist in assay development stable cell lines for human, murine and rat full length FAAH were developed. Human FAAH cDNA (Accession No: NM_001441.1) was purchased from Origene (Rockville, Md.). The full length FAAH was subcloned into the mammalian expression vector, pcDEF.neo, using XbaI and […] restriction sites and used for stable cell line generation.\nCHO cells expressing FAAH were used to prepare either crude cell lysate or microsome fractions. To harvest cells, tissue culture media was decanted, the monolayer washed three times with Ca^++Mg^++ free PBS and cells recovered after 15 min in enzyme free dissociation media (Millipore Corp, Billerica, Mass.). Cells were collected by centrifuging at 2000 rpm for 15 min. and the cell pellet re-suspended with 50 mM HEPES (pH 7.4) containing 1 mM EDTA and the protease inhibitors aprotinin (1 mg/ml) and leupeptin (100 μM). The suspension was sonicated at 4° C. and the cell lysate recovered after centrifuging at 12,000×g (14,600 rpm, SS34 rotor) for 20 min at 4° C. to form a crude pellet of cell debris, nuclei, peroxisomes, lysosomes, and mitochondria; the supernatant or cell lysate was used for FAAH enzyme assay. In some cases, microsomes fractions enriched in FAAH were prepared by centrifuging the cell lysate further at 27,000 rpm (100,000×g) in SW28 rotor for 50 minutes at 4° C. The pellet containing FAAH-enriched microsomes was re-suspend in 50 mM HEPES, (pH 7.4) 1 mM EDTA, and any remaining DNA sheared by passage of material through a 23 gauge needle and aliquots of enzyme were store at −80° C. prior to use.\n(American Radiolabeled Chemicals; 1 mCi/ml) with FAAH (Life Sciences (1995), 56, 1999-2005 and Journal of Pharmacology and Experimented Therapeutics (1997), 283, 729-734), Analytical. Biochemistry (2003), 318, 270-5. In addition, routine assays were performed monitoring hydrolysis of arachidonyl-7-amino-4-methylcoumarin amide (AAMCA) by following increase in fluorescence upon release of 7-amino 4-methyl coumarin (λEX=355 nm, (λEM=460 nm). Analytical. Biochemistry (2005). 343, 143-51.\nAssays are performed on either cell lysate or microsome fractions prepared as described or in whole cell format employing either the fluorescent substrate AAMCA (Cayman chemical, Ann Arbor, Mich.,) or ^3H-anandmaide ([ETHANOLAMINE-1-3H]American Radiolabeled Chemicals; 1 mCi/ml). The cell lysate or microsome assay is performed in Costar black wall, clear bottom plates by adding FAAH_CHO (whole cell, cell lysate or microsome) in assay buffer (50 mM Phosphate, pH 8.0, 1 mM EDTA, 200 mM KCl, 0.2% glycerol, 0.1% fatty acid free BSA) to each well, followed by either DMSO or compound and allowed to incubate at 22-25° C. for fifteen minutes. AAMCA substrate was used to achieve a final concentration of 1 μM and reaction allowed to proceed at room temperature for 1-3 hours. Fluorescent release as a measure of FAAH activity was monitored by reading the plate in a CytoFluor Multiplate Reader ([…]). Whole cell assay is conducted with cells harvested after rinsing tissue culture flasks three times with Ca^++Mg^++ free PBS, incubating for 10 mm in Enzyme free dissociation media and centrifuging for 5 minutes at 1,000 rpm in table top centrifuge. Cells are resuspended in assay buffer at desired cell number in (4×10^4 cells/assay in 96-well format; 1×10^4 cells/assay in 384-well format) and assayed as described.\nAlternatively, assays are performed using anandamide [ethanolamine 1-^3H] (specific activity of 10 Ci/mmol) diluted with cold anandamide to achieve a final assay concentration of 1 μM anandamide (˜50,000 cpm). Enzyme (CHO cell lysate, brain or liver homogenate) is incubated in assay buffer (50 mM Phosphate, pH 8.0, 1 mM EDTA, 200 mM KCl, 0.2% glycerol, 0.1% fatty acid free BSA) with inhibitor at 25° C. for 30 minutes. The reaction was terminated by addition of 2 volumes of chloroform:methanol (1:1) and mixed by vortexing. […]", "units": {"IC50": "nM"}}
{"compound": "CCNC(=O)c1ccc2cc(-c3nn(CC(C)C)cc3Sc3ccc(Cl)cc3)ccc2n1", "note": "[Example 370]", "IC50": 12}
{"compound": "Fc1ccc(-n2cc(Sc3ccc(Cl)cc3)c(-c3ccc4nc(C(F)F)ccc4c3)n2)cc1", "note": "[Example 380]", "IC50": 24}
{"compound": "N#Cc1ccc2cc(-c3nn(C4CC4)cc3Sc3ccc(Cl)cn3)ccc2n1", "note": "[Example 397]", "IC50": 172}
{"compound": "CCOC(=O)c1ccc2cc(-c3n[nH]cc3Sc3ccc(Cl)cn3)ccc2n1", "note": "[Example 398]", "IC50": 0.77}
{"compound": "O=C1CCc2cc(-c3nn(-c4ccccn4)cc3Sc3ccc(Cl)cc3)ccc2N1", "note": "[Example 345]", "IC50": 36}
{"compound": "O=C1CCc2cc(-c3nn(-c4ccccn4)cc3Sc3ccc(Cl)cc3)ccc2N1CCF", "note": "[Example 346]", "IC50": 15}
{"compound": "CCn1cc(-n2cc(Sc3ccc(Cl)cc3)c(-c3ccc4c(=O)n(-c5cnn(CC)c5)cnc4c3)n2)cn1", "note": "[Example 348]", "IC50": 36}
{"compound": "O=c1[nH]cnc2cc(-c3nn(-c4ccc(F)cc4)cc3Sc3ccc(Cl)cc3)ccc12", "note": "[Example 313, 7-{4-[(4-chlorophenyl)sulfanyl]-1-(4-fluorophenyl)-1H-pyrazol-3-yl}quinazolin-4(3H)-one]", "IC50": 8.7}
{"compound": "CN(C)C(=O)c1ccc2cc(-c3n[nH]cc3Sc3ccc(Cl)cn3)ccc2n1", "note": "[Example 330, 6-{4-[(5-chloropyridin-2-yl)sulfanyl]-1H-pyrazol-3-yl}-N,N-dimethylquinoline-2-carboxamide]", "IC50": 5.8}
{"compound": "O=c1[nH]cnc2cc(-c3n[nH]cc3Sc3ccc(Cl)cc3)ccc12", "note": "[Example 312, 7-{4-[(4-chlorophenyl)sulfanyl]-1H-pyrazol-3-yl}-quinazolin-4(3H)-one]", "IC50": 228}
{"compound": "CCOC(=O)c1cnc2cc(-c3nn(CCF)cc3Sc3ccc(Cl)cc3)cnc2c1", "note": "[Example 393]", "IC50": 16}
{"compound": "6-{4-[(5-chloropyridin-2-yl)sulfanyl]-1-(2-fluoroethyl)-1H-pyrazol-3-yl}-2-(difluoromethyl)quinoline [Example 333]", "IC50": 79}
{"compound": "CCNC(=O)c1ccc2cc(-c3nn(CC4CC4)cc3Sc3ccc(Cl)cc3)ccc2n1", "note": "[Example 369]", "IC50": 1.6}
{"compound": "CCOC(=O)c1cnc2cc(-c3nn(CCF)cc3Sc3ccc(Cl)cc3)ccc2c1", "note": "[Example 371]", "IC50": 4}
{"compound": "O=C1NCCc2cc(-c3nn(-c4ccc(F)cc4)cc3Sc3ccc(Cl)cc3)ccc21", "note": "[Example 308, 6-{4-[(4-chlorophenyl)sulfanyl]-1-(4-fluorophenyl)-1H-pyrazol-3-yl}-3,4-dihydroisoquinolin-1(2H)-one]", "IC50": 18}
{"compound": "CC(=O)N1CCc2cc(-c3n[nH]cc3Sc3ccc(Cl)cc3)ccc2C1", "note": "[Example 359]", "IC50": 101}
{"compound": "CCNC(=O)c1ccc2cc(-c3nn(C(C)C)cc3Sc3ccc(Cl)cc3)ccc2n1", "note": "[Example 368]", "IC50": 24}
{"compound": "CC(C)(O)c1ccc2cc(-c3n[nH]cc3Sc3ccc(Cl)cc3)ccc2n1", "note": "[Example 358]", "IC50": 423}
{"compound": "CCNC(=O)c1ccc2cc(-c3n[nH]cc3Sc3ccc(Cl)cc3)ccc2n1", "note": "[Example 355]", "IC50": 1.38}
{"compound": "Clc1ccc(Sc2cn(C3CC3)nc2-c2ccc3nc(Cl)ccc3c2)cc1", "note": "[Example 386]", "IC50": 94}
{"compound": "CC(C)(O)c1ccc2cc(-c3nn(CCF)cc3Sc3ccc(Cl)cc3)ccc2n1", "note": "[Example 357]", "IC50": 121}
{"compound": "Cn1cc(Sc2ccc(Cl)cc2)c(-c2ccc3nc(C(N)=O)ccc3c2)n1", "note": "[Example 353]", "IC50": 0.47}
{"compound": "CCn1cc(Sc2ccc(Cl)cc2)c(-c2ccc3c(c2)CCN(CCF)C3=O)n1", "note": "[Example 341]", "IC50": 47}
{"compound": "CCNC(=O)c1cnc2cc(-c3nn(CCF)cc3Sc3ccc(Cl)cc3)ccc2c1", "note": "[Example 394]", "IC50": 15}
{"compound": "OCc1ccc2cc(-c3n[nH]cc3Sc3ccc(Cl)cc3)ccc2n1", "note": "[Example 375]", "IC50": 11}
{"compound": "CCC(=O)N1CCc2cc(-c3n[nH]cc3Sc3ccc(Cl)cc3)ccc2C1", "note": "[Example 376]", "IC50": 168}
{"compound": "O=c1c2ccc(-c3nn(C4CC4)cc3Sc3ccc(Cl)cc3)cc2ncn1C1CC1", "note": "[Example 314, 7-{4-[(4-chlorophenyl)sulfanyl]-1-cyclopropyl-1H-pyrazol-3-yl}-3-cyclopropylquinazolin-4(3H)-one]", "IC50": 202}
{"compound": "CN(C)C(=O)c1ccc2cc(-c3nn(C4CC4)cc3Sc3ccc(Cl)cn3)ccc2n1", "note": "[Example 331, 6-{4-[(5-chloropyridin-2-yl)sulfanyl]-1-cyclopropyl-1H-pyrazol-3-yl}-N,N-dimethylquinoline-2-carboxamide]", "IC50": 77}
{"compound": "O=C1c2ccc(-c3nn(-c4ccccn4)cc3Sc3ccc(Cl)cc3)cc2CCN1CCF", "note": "[Example 339]", "IC50": 2.7}
{"compound": "O=C1NCCc2cc(-c3nn(-c4ccccn4)cc3Sc3ccc(Cl)cc3)ccc21", "note": "[Example 335]", "IC50": 8}
{"compound": "CC(=O)N1CCc2cc(-c3nn(C(C)C)cc3Sc3ccc(Cl)cc3)ccc2C1", "note": "[Example 377]", "IC50": 33}
{"compound": "CCn1cc(-n2cc(Sc3ccc(Cl)cc3)c(-c3ccc4c(=O)[nH]cnc4c3)n2)cn1", "note": "[Example 347]", "IC50": 12}
{"compound": "CC(C)(O)c1ccc(-c2nn(-c3ccc(F)cn3)cc2Sc2ccc(Cl)cc2)nn1", "note": "[Example 349]", "IC50": 59}
{"compound": "CCNC(=O)c1ccc2cc(-c3nn(CC(F)F)cc3Sc3ccc(Cl)cc3)ccc2n1", "note": "[Example 367]", "IC50": 20}
{"compound": "CCOC(=O)c1ccc2cc(-c3nn(C4CC4)cc3Sc3ccc(Cl)cn3)ccc2n1", "note": "[Example 399]", "IC50": 11}
{"compound": "CCC(=O)N1CCc2cc(-c3nn(CCF)cc3Sc3ccc(Cl)cc3)ccc2C1", "note": "[Example 390]", "IC50": 62}
{"compound": "NC(=O)c1ccc2cc(-c3nn(C4CC4)cc3Sc3ccc(Cl)cn3)ccc2n1", "note": "[Example 396]", "IC50": 14.8}
{"compound": "O=C1NCCc2cc(-c3nn(CCF)cc3Sc3ccc(Cl)cc3)ccc21", "note": "[Example 311]", "IC50": 91}
{"compound": "N#Cc1ccc2cc(-c3n[nH]cc3Sc3ccc(Cl)cc3)ccc2n1", "note": "[Example 363]", "IC50": 23}
{"compound": "CN(C)C(=O)c1ccc2cc(-c3nn(C4CC4)cc3Sc3ccc(Cl)cc3)ccc2n1", "note": "[Example 400]", "IC50": 39}
{"compound": "FC(F)c1ccc2cc(-c3nn(C4CC4)cc3Sc3ccc(Cl)cn3)ccc2n1", "note": "[Example 383]", "IC50": 29}
{"compound": "OCc1ccc2cc(-c3nn(CCF)cc3Sc3ccc(Cl)cc3)ccc2n1", "note": "[Example 372]", "IC50": 30}
{"compound": "CCNC(=O)c1ccc2cc(-c3nn(CCF)cc3Sc3ccc(Cl)cc3)ccc2n1", "note": "[Example 366]", "IC50": 7.2}
{"compound": "CCn1cc(-n2cc(Sc3ccc(Cl)cc3)c(-c3ccc4nc(C(F)F)ccc4c3)n2)cn1", "note": "[Example 382]", "IC50": 4.9}
{"compound": "CN(C)C(=O)c1ccc2cc(-c3nn(C4CC4)cc3Sc3ncc(Cl)cn3)ccc2n1", "note": "[Example 401]", "IC50": 291}
{"compound": "OCc1cnc2cc(-c3nn(CCF)cc3Sc3ccc(Cl)cc3)ccc2c1", "note": "[Example 391]", "IC50": 24}
